Data from PubChem BioAssay AID248 (DTP/NCI, 2004).
Where “and” joins values, the source holds several entries; their conditions need not be identical. Identical values can stand only once. Inconclusive results and toxic doses are left out.

Tested on: L1210 leukemia ip in BDF1 mice, survival T/C
Assay: NCI In Vivo Anticancer Drug Screen. Data for tumor model L1210 Leukemia (intraperitoneal) in B6D2F1 (BDF1) mice
Conditions: endpoint: mean survival time, higher = longer survival
Method in brief: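 Transplanted-tumor mice were given test agent; controls received vehicle only. Survival readings from the two groups were divided (treated over control).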

[1] = dose: 75.0 mg/kg/injection, schedule: Q01DX001 (ip), vehicle: other
[2] = dose: 100.0 mg/kg/injection, schedule: Q01DX009 (ip), vehicle: Klucel (hydroxypropylcellulose) (HPC)
[3] = dose: 200.0 mg/kg/injection, schedule: Q01DX009 (ip), vehicle: Klucel (hydroxypropylcellulose) (HPC)
[4] = dose: 400.0 mg/kg/injection, schedule: Q01DX009 (ip), vehicle: Klucel (hydroxypropylcellulose) (HPC)
[5] = dose: 50.0 mg/kg/injection, schedule: Q01DX009 (ip), vehicle: saline
[6] = dose: 100.0 mg/kg/injection, schedule: Q01DX009 (ip), vehicle: saline
[7] = dose: 100.0 mg/kg/injection, schedule: Q04DX003 (ip), vehicle: saline with Tween-80
[8] = dose: 200.0 mg/kg/injection, schedule: Q04DX003 (ip), vehicle: saline with Tween-80
[9] = dose: 12.5 mg/kg/injection, schedule: Q01DX009 (ip), vehicle: Klucel (hydroxypropylcellulose) (HPC)
[10] = dose: 25.0 mg/kg/injection, schedule: Q01DX009 (ip), vehicle: Klucel (hydroxypropylcellulose) (HPC)
[11] = dose: 50.0 mg/kg/injection, schedule: Q01DX009 (ip), vehicle: Klucel (hydroxypropylcellulose) (HPC)
[12] = dose: 100.0 mg/kg/injection, schedule: Q04DX003 (ip), vehicle: Klucel (hydroxypropylcellulose) (HPC)
[13] = dose: 200.0 mg/kg/injection, schedule: Q04DX003 (ip), vehicle: Klucel (hydroxypropylcellulose) (HPC)
[14] = dose: 400.0 mg/kg/injection, schedule: Q04DX003 (ip), vehicle: Klucel (hydroxypropylcellulose) (HPC)
[15] = dose: 100.0 mg/kg/injection, schedule: Q01DX001 (ip), vehicle: carboxymethylcellulose (CMC)
[16] = dose: 200.0 mg/kg/injection, schedule: Q01DX001 (ip), vehicle: carboxymethylcellulose (CMC)
[17] = dose: 400.0 mg/kg/injection, schedule: Q01DX001 (ip), vehicle: carboxymethylcellulose (CMC)
[18] = dose: 100.0 mg/kg/injection, schedule: Q04DX002 (ip), vehicle: Klucel (hydroxypropylcellulose) (HPC)
[19] = dose: 200.0 mg/kg/injection, schedule: Q04DX002 (ip), vehicle: Klucel (hydroxypropylcellulose) (HPC)
[20] = dose: 400.0 mg/kg/injection, schedule: Q04DX003 (ip), vehicle: saline with Tween-80
[21] = dose: 50.0 mg/kg/injection, schedule: Q01DX001 (ip), vehicle: saline
[22] = dose: 100.0 mg/kg/injection, schedule: Q01DX001 (ip), vehicle: saline
[23] = dose: 200.0 mg/kg/injection, schedule: Q01DX001 (ip), vehicle: saline
[24] = dose: 400.0 mg/kg/injection, schedule: Q01DX001 (ip), vehicle: saline
[25] = dose: 100.0 mg/kg/injection, schedule: Q04DX003 (ip), vehicle: saline
[26] = dose: 200.0 mg/kg/injection, schedule: Q04DX003 (ip), vehicle: saline

In the case of `CC1(C)SC(N=C=Nc2ccccc2)CN1C=O` (centres undefined), the T/C [1] is reported as 96 % of control, the T/C (dose: 150.0 mg/kg/injection, schedule: Q01DX001 (ip), vehicle: other) is reported as 86 % of control and the T/C (dose: 300.0 mg/kg/injection, schedule: Q01DX001 (ip), vehicle: other) is reported as 93 % of control.
For `CN(C)N=Nc1ccc(C(=O)Oc2ccc3c(c2)CCC2C3CCC3(C)C(=O)CCC23)cc1` (centres undefined), the T/C [2] was 90 % of control, the T/C [3] was 92 % of control and the T/C [4] was 88 % of control.
With `Cc1ccc2c(c1)P(O)(=S)c1cc(F)ccc1O2` (centres undefined) the T/C [5] was 113 % of control, the T/C [6] was 103 % of control and the T/C (dose: 200.0 mg/kg/injection, schedule: Q01DX009 (ip), vehicle: saline) was 110 % of control.
`OCc1ccc[n+](CCc2c[nH]c3ccccc23)c1` was tested, and the T/C [7] was 97 % of control and the T/C [8] was 103 % of control.
For `CC(C)=CCC(CCN(C)C)(C(N)=O)c1ccc2ccccc2c1` (centres undefined), the T/C [9] was 93 % of control, the T/C [10] was 86 % of control and the T/C [11] was 91 % of control.
In the case of `Cc1ccc(C)c(/C(=N\N=C(N)N)C2CC2)c1`, the T/C (dose: 15.0 mg/kg/injection, schedule: Q01DX Z (ip), vehicle: methylcellulose (MC)) is reported as 103 % of control, the T/C (dose: 30.0 mg/kg/injection, schedule: Q01DX Z (ip), vehicle: methylcellulose (MC)) is reported as 99 % of control and the T/C (dose: 30.0 mg/kg/injection, schedule: Q01DX Z (oral), vehicle: methylcellulose (MC)) is reported as 103 % of control. For the same compound, the T/C (dose: 60.0 mg/kg/injection, schedule: Q01DX Z (ip), vehicle: methylcellulose (MC)) was 100 % of control, the T/C (dose: 60.0 mg/kg/injection, schedule: Q01DX Z (oral), vehicle: methylcellulose (MC)) was 94 % of control and the T/C (dose: 120.0 mg/kg/injection, schedule: Q01DX Z (oral), vehicle: methylcellulose (MC)) was 100 % of control.
With `S=C=Nc1cccc(Cl)c1` the T/C (dose: 75.0 mg/kg/injection, schedule: Q01DX001 (ip), vehicle: saline) was 100 % of control and the T/C (dose: 150.0 mg/kg/injection, schedule: Q01DX001 (ip), vehicle: saline) was 96 % of control.
`NC(=O)CC(N)C(N)=O` (centres undefined) was tested, and the T/C (dose: 100.0 mg/kg/injection, schedule: Q04DX002 (ip), vehicle: saline) was 98 % of control, the T/C (dose: 200.0 mg/kg/injection, schedule: Q04DX002 (ip), vehicle: saline) was 106 % of control and the T/C (dose: 400.0 mg/kg/injection, schedule: Q04DX002 (ip), vehicle: saline) was 109 % of control.
In the case of `O=C(OCc1ccccc1)C(=O)OCc1ccccc1`, the T/C [2] is reported as 90 % of control, the T/C [12] is reported as 95 % of control and the T/C [3] is reported as 103 % of control. The T/C [13] was 100 % of control and the T/C [14] was 100 % of control.
In the case of `COc1ccc(/C=N/N=C(N)N)cc1`, the T/C (dose: 15.0 mg/kg/injection, schedule: Q01DX Z (ip), vehicle: saline) is reported as 103 % of control, the T/C (dose: 30.0 mg/kg/injection, schedule: Q01DX Z (ip), vehicle: saline) is reported as 100 % of control and the T/C (dose: 30.0 mg/kg/injection, schedule: Q01DX Z (oral), vehicle: other) is reported as 93 % of control. The T/C (dose: 60.0 mg/kg/injection, schedule: Q01DX Z (ip), vehicle: saline) was 95 % of control, the T/C (dose: 60.0 mg/kg/injection, schedule: Q01DX Z (oral), vehicle: other) was 100 % of control and the T/C (dose: 120.0 mg/kg/injection, schedule: Q01DX Z (oral), vehicle: other) was 98 % of control.
For `Cn1cnc([N+](=O)[O-])c1[Se]c1nc(N)nc2c1ncn2C1OC(CO)C(O)C1O` (centres undefined), the T/C (dose: 12.5 mg/kg/injection, schedule: Q01DX009 (ip), vehicle: saline) was 161 % of control and 165 % of control, the T/C (dose: 25.0 mg/kg/injection, schedule: Q01DX009 (ip), vehicle: saline) was 189 % of control and 201 % of control and the T/C [5] was 203 % of control and 255 % of control.
`CCCC(C)(O)C(C)(C)C` (centres undefined) was tested, and the T/C [15] was 106 % of control, the T/C [16] was 106 % of control and the T/C [17] was 90 % of control.
`C=CCNC(=S)Nc1c(C)cc(C)cc1C` was tested, and the T/C [9] was 102 % of control, the T/C [10] was 97 % of control and the T/C [11] was 103 % of control.
With `CCO/C=N/c1oc(-c2ccccc2)nc1C#N` the T/C [18] was 91 % of control and the T/C [19] was 96 % of control.
`Cc1ccc(C(C)C)cc1N1C(=O)C2C(C1=O)C1(Cl)C(Cl)=C(Cl)C2(Cl)C1(Cl)Cl` (centres undefined) was tested, and the T/C [2] was 92 % of control, the T/C [3] was 97 % of control and the T/C [4] was 91 % of control.
With `CNC(=O)CCC(NC(=O)c1ccc(N(C)Cc2cnc3nc(N)nc(N)c3n2)cc1)C(=O)O` (centres undefined) the T/C (dose: 25.0 mg/kg/injection, schedule: Q01DX009 (ip), vehicle: sodium bicarbonate) was 116 % of control and the T/C (dose: 100.0 mg/kg/injection, schedule: Q01DX009 (ip), vehicle: sodium bicarbonate) was 158 % of control.
In the case of `Cc1ccc(NCc2nc(N)nc(Nc3ccccc3)n2)cc1`, the T/C [7] is reported as 97 % of control, the T/C [8] is reported as 92 % of control and the T/C [20] is reported as 93 % of control.
For `CC1CCN(C(CC(=O)c2ccccc2)C(=O)c2ccccc2)CC1` (centres undefined), the T/C [21] was 104 % of control, the T/C [22] was 98 % of control and the T/C [23] was 102 % of control. The T/C [24] was 96 % of control.
With `O=C(O)COc1ccc(Cl)cc1I` the T/C [18] was 120 % of control and the T/C [19] was 97 % of control.
`CC(C)OC(=O)COc1cc(F)c(Cl)cc1Cl` was tested, and the T/C [18] was 102 % of control, the T/C [19] was 95 % of control and the T/C (dose: 400.0 mg/kg/injection, schedule: Q04DX002 (ip), vehicle: Klucel (hydroxypropylcellulose) (HPC)) was 102 % of control.
With `CN(C)CCC(=O)c1cccc([N+](=O)[O-])c1` the T/C [1] was 102 % of control.
For `O=C(N/N=C/c1ccc(Cl)cc1)C(O)c1ccccc1` (centres undefined), the T/C [2] was 87 % of control, the T/C [3] was 87 % of control and the T/C [4] was 89 % of control.
`c1ccc(-c2ccc([Si](c3ccccc3)(c3ccccc3)c3ccccc3)cc2)cc1` was tested, and the T/C [2] was 102 % of control, the T/C [12] was 105 % of control and the T/C [3] was 96 % of control. The T/C [13] was 94 % of control, the T/C [4] was 93 % of control and the T/C [14] was 96 % of control.
For `OCCCN1CCC2(CC1)SSC1(CCN(CCCO)CC1)S2`, the T/C [5] was 95 % of control, the T/C [6] was 101 % of control and the T/C [25] was 95 % of control. The T/C [26] was 98 % of control.
In the case of `O=C1c2ccccc2C(=O)N1OCCCCON1C(=O)c2ccccc2C1=O`, the T/C [21] is reported as 100 % of control, the T/C [22] is reported as 106 % of control and the T/C [23] is reported as 106 % of control. For the same compound, the T/C [24] was 102 % of control.
`Cc1cc(O)c(C=O)c(C)c1O` was tested, and the T/C [2] was 110 % of control and the T/C [3] was 117 % of control.
`N#Cc1cn(C2CCCCC2)c2ncccc12` was tested, and the T/C (dose: 25.0 mg/kg/injection, schedule: Q04DX003 (ip), vehicle: saline with Tween-80) was 90 % of control, the T/C (dose: 50.0 mg/kg/injection, schedule: Q04DX003 (ip), vehicle: saline with Tween-80) was 97 % of control and the T/C [7] was 93 % of control.
In the case of `O=C(OCCOCCOCCOCCOCCOCCOCCOCCOCCOCCOCCOCCOCCOCCOCCOCCOCCOCCOCCOCCOCCOCCOC(=O)N1CC1)N1CC1`, the T/C (dose: 100.0 mg/kg/injection, schedule: Q01DX001 (ip), vehicle: acetone) is reported as 94 % of control, the T/C (dose: 100.0 mg/kg/injection, schedule: Q01DX009 (ip), vehicle: acetone) is reported as 98 % of control and the T/C [25] is reported as 100 % of control. The T/C (dose: 200.0 mg/kg/injection, schedule: Q01DX001 (ip), vehicle: acetone) was 94 % of control, the T/C (dose: 200.0 mg/kg/injection, schedule: Q01DX009 (ip), vehicle: acetone) was 95 % of control and the T/C [26] was 103 % of control. For the same compound, the T/C (dose: 400.0 mg/kg/injection, schedule: Q01DX001 (ip), vehicle: acetone) was 97 % of control and the T/C (dose: 400.0 mg/kg/injection, schedule: Q04DX003 (ip), vehicle: saline) was 108 % of control.
`CCOc1ccc(N2C(=O)CC(Sc3ccccc3N)C2=O)cc1` (centres undefined) was tested, and the T/C [7] was 89 % of control, the T/C [8] was 90 % of control and the T/C [20] was 88 % of control.
`O/N=C1\CCn2cccc21` was tested, and the T/C [7] was 91 % of control, the T/C [8] was 91 % of control and the T/C [20] was 87 % of control.
`COc1ccc(C(=O)C(C)C(C)=O)c(OCc2ccccc2)c1OC` (centres undefined) was tested, and the T/C [15] was 96 % of control, the T/C [16] was 98 % of control and the T/C [17] was 93 % of control.
